Experiments:
[1] = target: GDP-bound NRAS wild-type protein (Homo sapiens, UniProt P01111); assay: Binding to NRAS by surface plasmon resonance (SPR), Single Cycle Kinetics; settings: SPR; KD ratio class
[2] = target: GDP-bound HRAS wild-type protein (Homo sapiens, UniProt P01112); assay: Binding to HRAS by surface plasmon resonance (SPR), Single Cycle Kinetics; settings: SPR; KD ratio class
[3] = test system: human lung cancer strain NCI-H441; assay: cells; settings: NCI-H441, 96 h, read-out: NCI-H441 IC50 (nM)

Sequence of GDP-bound HRAS wild-type protein (P01112 whole entry): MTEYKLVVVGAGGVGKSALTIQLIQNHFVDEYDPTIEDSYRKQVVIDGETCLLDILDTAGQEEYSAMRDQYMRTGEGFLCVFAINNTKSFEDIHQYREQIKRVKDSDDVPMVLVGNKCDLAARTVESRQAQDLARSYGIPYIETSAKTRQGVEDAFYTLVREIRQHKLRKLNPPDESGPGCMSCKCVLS
Sequence of GDP-bound NRAS wild-type protein (P01111 whole entry): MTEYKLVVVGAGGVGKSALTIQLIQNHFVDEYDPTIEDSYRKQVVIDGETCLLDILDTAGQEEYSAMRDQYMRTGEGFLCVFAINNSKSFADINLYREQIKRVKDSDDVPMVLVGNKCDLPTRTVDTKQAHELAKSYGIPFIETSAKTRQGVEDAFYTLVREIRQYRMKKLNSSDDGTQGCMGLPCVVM

Compound | IC50 [3] | NRAS/KRAS (ratio of KD value for GDP-bound NRAS wild-type protein to KD value for KRAS) [1] | HRAS/KRAS (ratio of KD value for GDP-bound HRAS wild-type protein to KD value for KRAS) [2]
CCO[C@@H]1C[C@H]2C(=O)NC3(CCC3)C(=O)N(C)[C@@H](C3CCCC3)C(=O)N(C)[C@H](C(=O)N3CCCC3)CC(=O)N(C)[C@@H](CC(C)C)C(=O)N[C@@H]([C@@H](C)CC)C(=O)N(C)CC(=O)N(C)[C@H]3C/C=C\CCN(C3=O)[C@@H](Cc3ccc(C)cc3)C(=O)N(C)CC(=O)N[C@@H](CCc3cc(F)c(C(F)(F)F)c(F)c3)C(=O)N2C1 [PP1416] | 3.8 nM | A (a compound having 10 or more and less than 20 is denoted as A) | A (a compound having 10 or more and less than 20 is denoted as A)
CCO[C@@H]1C[C@H]2C(=O)NC3(CCC3)C(=O)N(C)[C@@H](C3CCCC3)C(=O)N(C)[C@H](C)CC(=O)N(C)[C@@H](CC(C)C)C(=O)N[C@@H]([C@@H](C)CC)C(=O)N(C)CC(=O)N(C)[C@H]3C/C=C\CCN(C3=O)[C@@H](Cc3ccc(C)cc3)C(=O)N(C)CC(=O)N[C@@H](CCc3cc(F)c(C(F)(F)F)c(F)c3)C(=O)N2C1 [PP1417] | 18.4 nM | B (a compound having 3 or more and less than 10 is denoted as B) | B (a compound having 3 or more and less than 10 is denoted as B)
CCO[C@@H]1C[C@H]2C(=O)NC3(CCC3)C(=O)N(C)[C@@H](C3CCCC3)C(=O)N(C)[C@H](C(=O)N3CCCC3)CC(=O)N(C)[C@@H](CC3CCCCC3)C(=O)N[C@@H]([C@@H](C)CC)C(=O)N(C)CC(=O)N(C)[C@H]3C/C=C\CCN(C3=O)[C@@H](Cc3ccc(C(F)(F)F)cc3)C(=O)N(C)CC(=O)N[C@@H](CCc3cc(F)c(C(F)(F)F)c(F)c3)C(=O)N2C1 [PP1419] | 40.4 nM | AA (a compound having 20 or more is denoted as AA) | A (a compound having 10 or more and less than 20 is denoted as A)
CCO[C@@H]1C[C@H]2C(=O)NC3(CCC3)C(=O)N(C)[C@@H](C3CCCC3)C(=O)N(C)[C@H](C(=O)N3CCOCC3)CC(=O)N(C)[C@@H](CC3CCCCC3)C(=O)N[C@@H]([C@@H](C)CC)C(=O)N(C)CC(=O)N(C)[C@H]3C/C=C\CCN(C3=O)[C@@H](Cc3ccc(C)cc3)C(=O)N(C)CC(=O)N[C@@H](CCc3cc(F)c(C(F)(F)F)c(F)c3)C(=O)N2C1 [PP1420] | 31.4 nM | A (a compound having 10 or more and less than 20 is denoted as A) | A (a compound having 10 or more and less than 20 is denoted as A)
CCO[C@@H]1C[C@H]2C(=O)NC3(CCC3)C(=O)N(C)[C@@H](C3CCCC3)C(=O)N(C)[C@H](C(=O)N(C)C)CC(=O)N(C)[C@@H](CC3CC3)C(=O)N[C@@H]([C@@H](C)CC)C(=O)N(C)CC(=O)N(C)[C@H]3C/C=C\CCN(C3=O)[C@@H](Cc3ccc(F)cc3)C(=O)N(C)CC(=O)N[C@@H](CCc3ccc4sccc4c3)C(=O)N2C1 [PP1426] | 475 nM | A (a compound having 10 or more and less than 20 is denoted as A) | B (a compound having 3 or more and less than 10 is denoted as B)
CCO[C@@H]1C[C@H]2C(=O)NC3(CCC3)C(=O)N(C)[C@@H](C(CC)CC)C(=O)N(C)[C@H](C(=O)N(C)C)CC(=O)N(C)[C@@H](CC3CC3)C(=O)N[C@@H]([C@@H](C)CC)C(=O)N(C)CC(=O)N(C)[C@H]3C/C=C\CCN(C3=O)[C@@H](CC3CCCCC3)C(=O)N(C)CC(=O)N[C@@H](CCc3cc(F)c(C(F)(F)F)c(F)c3)C(=O)N2C1 [PP1428] | 38.8 nM | AA (a compound having 20 or more is denoted as AA) | A (a compound having 10 or more and less than 20 is denoted as A)

The remaining compounds from weak to strong by IC50 [3], led by results:

IC50 [3] | Compound | NRAS/KRAS (ratio of KD value for GDP-bound NRAS wild-type protein to KD value for KRAS) [1] | HRAS/KRAS (ratio of KD value for GDP-bound HRAS wild-type protein to KD value for KRAS) [2]
465 nM | CCO[C@@H]1C[C@H]2C(=O)NC3(CCC3)C(=O)N(C)[C@@H](C3CCCC3)C(=O)N(C)[C@H](C(=O)N(C)C)CC(=O)N(C)[C@@H](CC(C)C)C(=O)N[C@@H]([C@@H](C)CC)C(=O)N(C)CC(=O)N(C)[C@H]3C/C=C\CCN(C3=O)[C@@H](Cc3ccc(F)cc3)C(=O)N(C)CC(=O)N[C@@H](CCc3ccc4sccc4c3)C(=O)N2C1 [PP1427] | A (a compound having 10 or more and less than 20 is denoted as A) | B (a compound having 3 or more and less than 10 is denoted as B)
70.4 nM | CCO[C@@H]1C[C@H]2C(=O)NC3(CCC3)C(=O)N(C)[C@@H](C(CC)CC)C(=O)N(C)[C@H](C(=O)N(C)C)CC(=O)N(C)[C@@H](CC3CCCC3)C(=O)N[C@@H]([C@@H](C)CC)C(=O)N(C)CC(=O)N(C)[C@H]3C/C=C\CCN(C3=O)[C@@H](CC3CCCCC3)C(=O)N(C)CC(=O)N[C@@H](CCc3cc(F)c(C(F)(F)F)c(F)c3)C(=O)N2C1 [PP1430] | A (a compound having 10 or more and less than 20 is denoted as A) | A (a compound having 10 or more and less than 20 is denoted as A)
62.5 nM | CCO[C@@H]1C[C@H]2C(=O)NC3(CCC3)C(=O)N(C)[C@@H](C3CCCC3)C(=O)N(C)[C@H](C)CC(=O)N(C)[C@@H](CC3CCCC3)C(=O)N[C@@H]([C@@H](C)CC)C(=O)N(C)CC(=O)N(C)[C@H]3C/C=C\CCN(C3=O)[C@@H](Cc3ccc(C)cc3)C(=O)N(C)CC(=O)N[C@@H](CCc3cc(F)c(C(F)(F)F)c(F)c3)C(=O)N2C1 [PP1413] | B (a compound having 3 or more and less than 10 is denoted as B) | B (a compound having 3 or more and less than 10 is denoted as B)
38.7 nM | CCO[C@@H]1C[C@H]2C(=O)NC3(CCC3)C(=O)N(C)[C@@H](C(CC)CC)C(=O)N(C)[C@H](C(=O)N(C)C)CC(=O)N(C)[C@@H](CC3CC3)C(=O)N[C@@H]([C@@H](C)CC)C(=O)N(C)CC(=O)N(C)[C@H]3C/C=C\CCN(C3=O)[C@@H](CC3CCC(F)(F)CC3)C(=O)N(C)CC(=O)N[C@@H](CCc3cc(F)c(C(F)(F)F)c(F)c3)C(=O)N2C1 [PP1429] | AA (a compound having 20 or more is denoted as AA) | A (a compound having 10 or more and less than 20 is denoted as A)
29.9 nM | CCO[C@@H]1C[C@H]2C(=O)NC3(CCC3)C(=O)N(C)[C@@H](C3CCCC3)C(=O)N(C)[C@H](C(=O)N3CCOCC3)CC(=O)N(C)[C@@H](CC3CCCCC3)C(=O)N[C@@H]([C@@H](C)CC)C(=O)N(C)CC(=O)N(C)[C@H]3C/C=C\CCN(C3=O)[C@@H](Cc3ccc(C(F)(F)F)cc3)C(=O)N(C)CC(=O)N[C@@H](CCc3cc(F)c(C(F)(F)F)c(F)c3)C(=O)N2C1 [PP1418] | AA (a compound having 20 or more is denoted as AA) | A (a compound having 10 or more and less than 20 is denoted as A)
26.3 nM | CCO[C@@H]1C[C@H]2C(=O)NC3(CCC3)C(=O)N(C)[C@@H](C3CCCC3)C(=O)N(C)[C@H](C(=O)N3CCOCC3)CC(=O)N(C)[C@@H](CC3CCC3)C(=O)N[C@@H]([C@@H](C)CC)C(=O)N(C)CC(=O)N(C)[C@H]3C/C=C\CCN(C3=O)[C@@H](Cc3ccc(C)cc3)C(=O)N(C)CC(=O)N[C@@H](CCc3cc(F)c(C(F)(F)F)c(F)c3)C(=O)N2C1 [PP1424] | A (a compound having 10 or more and less than 20 is denoted as A) | A (a compound having 10 or more and less than 20 is denoted as A)
20.2 nM | CCO[C@@H]1C[C@H]2C(=O)NC3(CCC3)C(=O)N(C)[C@@H](C3CCCC3)C(=O)N(C)[C@H](C(=O)N3CCCC3)CC(=O)N(C)[C@@H](CC3CCC3)C(=O)N[C@@H]([C@@H](C)CC)C(=O)N(C)CC(=O)N(C)[C@H]3C/C=C\CCN(C3=O)[C@@H](Cc3ccc(C)cc3)C(=O)N(C)CC(=O)N[C@@H](CCc3cc(F)c(C(F)(F)F)c(F)c3)C(=O)N2C1 [PP1425] | A (a compound having 10 or more and less than 20 is denoted as A) | B (a compound having 3 or more and less than 10 is denoted as B)
14.1 nM | CCO[C@@H]1C[C@H]2C(=O)NC3(CCC3)C(=O)N(C)[C@@H](C3CCCC3)C(=O)N(C)[C@H](C(=O)N3CCOCC3)CC(=O)N(C)[C@@H](CC3CCC3)C(=O)N[C@@H]([C@@H](C)CC)C(=O)N(C)CC(=O)N(C)[C@H]3C/C=C\CCN(C3=O)[C@@H](Cc3ccc(C(F)(F)F)cc3)C(=O)N(C)CC(=O)N[C@@H](CCc3cc(F)c(C(F)(F)F)c(F)c3)C(=O)N2C1 [PP1422] | AA (a compound having 20 or more is denoted as AA) | A (a compound having 10 or more and less than 20 is denoted as A)
9.5 nM | CCO[C@@H]1C[C@H]2C(=O)NC3(CCC3)C(=O)N(C)[C@@H](C3CCCC3)C(=O)N(C)[C@H](C(=O)N3CCOCC3)CC(=O)N(C)[C@@H](CC(C)C)C(=O)N[C@@H]([C@@H](C)CC)C(=O)N(C)CC(=O)N(C)[C@H]3C/C=C\CCN(C3=O)[C@@H](Cc3ccc(C)cc3)C(=O)N(C)CC(=O)N[C@@H](CCc3cc(F)c(C(F)(F)F)c(F)c3)C(=O)N2C1 [PP1415] | A (a compound having 10 or more and less than 20 is denoted as A) | A (a compound having 10 or more and less than 20 is denoted as A)
